Assay results: ChEMBL document CHEMBL3351830, “Discovery and structure-activity relationships of phenyl benzenesulfonylhydrazides as novel indoleamine 2,3-dioxygenase inhibitors” (Bioorg Med Chem Lett, 2014)

How the values were obtained:
[1] = target: T1, Indoleamine 2,3-dioxygenase 1 (Homo sapiens, UniProt P14902); assay: Inhibition of human recombinant IDO expressed in Escherichia coli using N-formylkynurenine as substrate incubated for 1 hr prior to NaOH addition measured after 4 hrs by spectrophotometry
T1 sequence (P14902 whole entry): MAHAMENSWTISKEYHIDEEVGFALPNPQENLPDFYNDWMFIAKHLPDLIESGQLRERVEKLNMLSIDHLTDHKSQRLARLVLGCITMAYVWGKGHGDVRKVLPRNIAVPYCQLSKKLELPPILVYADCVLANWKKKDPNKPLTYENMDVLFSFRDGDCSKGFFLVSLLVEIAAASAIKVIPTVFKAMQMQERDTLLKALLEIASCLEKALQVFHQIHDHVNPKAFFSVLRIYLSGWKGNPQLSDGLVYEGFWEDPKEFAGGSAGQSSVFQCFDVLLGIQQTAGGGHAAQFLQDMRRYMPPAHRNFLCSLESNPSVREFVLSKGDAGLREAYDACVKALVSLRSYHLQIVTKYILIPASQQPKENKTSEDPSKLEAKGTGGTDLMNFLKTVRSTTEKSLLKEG

[2] = target: T1, Indoleamine 2,3-dioxygenase 1; assay: Inhibition of IDO in human HeLa cells after 24 hrs by spectrophotometry; type: cell-based

| IC50 [1] | EC50 [2] | SMILES |
| --- | --- | --- |
| 49 nM | 241 nM | CC(=O)Nc1ccc(S(=O)(=O)NNc2cccc(C)c2)cc1 |
| 167 nM | > 10000 nM | O=S(=O)(CCc1ccccc1)NNc1ccccc1 |
| 80 nM | 271 nM | Cc1cccc(NNS(=O)(=O)c2ccc(C(=O)NCC(=O)O)cc2)c1 |
| 43 nM | 7850 nM | Cc1cccc(NNS(=O)(=O)c2ccc(S(C)(=O)=O)cc2)c1 |
| 59 nM | 3400 nM | Cc1cccc(NNS(=O)(=O)c2ccc(C#N)cc2)c1 |
| 59 nM | 296 nM | Cc1cccc(NNS(=O)(=O)c2ccc(Oc3ccc(C(F)(F)F)cn3)cc2)c1 |
| 71 nM | > 10000 nM | CC(=O)Nc1ccc(S(=O)(=O)NNc2ccccc2)cc1 |
| 51 nM | 1170 nM | CC(=O)Nc1ccc(S(=O)(=O)NNc2ccc(C)cc2)cc1 |
| 254 nM | > 10000 nM | COc1ccc(NNS(=O)(=O)c2ccc(NC(C)=O)cc2)cc1 |
| 5670 nM | 1390 nM | CC(=O)Nc1ccc(S(=O)(=O)NNc2ccc(C#N)cc2)cc1 |
| 2480 nM | 3120 nM | CC(=O)Nc1ccc(S(=O)(=O)NNc2ccc(S(N)(=O)=O)cc2)cc1 |
| 1610 nM | 181 nM | CC(=O)Nc1ccc(S(=O)(=O)NNc2ccc(C(F)(F)F)cc2)cc1 |
| 79 nM | 609 nM | CC(=O)Nc1ccc(S(=O)(=O)NNc2ccc(F)cc2)cc1 |
| 155 nM | 142 nM | CC(=O)Nc1ccc(S(=O)(=O)NNc2ccc(Cl)cc2)cc1 |
| 130 nM | 85 nM | CC(=O)Nc1ccc(S(=O)(=O)NNc2ccc(Br)cc2)cc1 |
| 122 nM | > 10000 nM | CC(=O)Nc1ccc(S(=O)(=O)NNc2cccc(F)c2)cc1 |
| 255 nM | 7560 nM | CC(=O)Nc1ccc(S(=O)(=O)NNc2cccc(Br)c2)cc1 |
| 128 nM | 2490 nM | CC(=O)Nc1ccc(S(=O)(=O)NNc2ccc(F)c(Br)c2)cc1 |

| IC50 [1] | EC50 [2] | SMILES |
| --- | --- | --- |
| 110 nM | 2590 nM | CC(=O)Nc1ccc(S(=O)(=O)NNc2ccc(F)c(Cl)c2)cc1 |
| 205 nM | 187 nM | CC(=O)Nc1ccc(S(=O)(=O)NNc2ccc(Br)c(F)c2)cc1 |
| 58 nM | 130 nM | CC(=O)Nc1ccc(S(=O)(=O)NNc2ccc(Br)c(C)c2)cc1 |
| 194 nM | 84 nM | CC(=O)Nc1ccc(S(=O)(=O)NNc2ccc(Cl)c(F)c2)cc1 |
| 1750 nM | 2230 nM | CC(=O)Nc1ccc(S(=O)(=O)NNc2cc(F)cc(F)c2)cc1 |
| 608 nM | > 10000 nM | CC(=O)Nc1ccc(S(=O)(=O)NNc2ccc(F)cc2F)cc1 |
| 247 nM | 350 nM | CC(=O)Nc1ccc(S(=O)(=O)NNc2ccc(Cl)c(Cl)c2)cc1 |
| 352 nM | 508 nM | CC(=O)Nc1ccc(S(=O)(=O)NNc2cc(Cl)cc(Cl)c2)cc1 |
| 172 nM | 128 nM | O=S(=O)(NNc1ccc(Br)cc1)c1ccccc1 |
| 85 nM | 374 nM | O=S(=O)(NNc1ccc(Br)cc1)c1ccc(Br)cc1 |
| 1430 nM | 640 nM | COc1ccc(S(=O)(=O)NNc2ccc(Br)cc2)cc1 |
| 176 nM | 134 nM | N#Cc1ccc(S(=O)(=O)NNc2ccc(Br)cc2)cc1 |
| 121 nM | 465 nM | COC(=O)CCc1ccc(S(=O)(=O)NNc2ccc(Br)cc2)cc1 |
| 132 nM | 187 nM | CCCC(=O)Nc1ccc(S(=O)(=O)NNc2ccc(Br)cc2)cc1 |
| 141 nM | 183 nM | O=C(O)CCc1ccc(S(=O)(=O)NNc2ccc(Br)cc2)cc1 |
| 125 nM | 152 nM | O=C(O)COc1ccc(S(=O)(=O)NNc2ccc(Br)cc2)cc1 |
| 61 nM | 172 nM | O=C(O)c1ccc(S(=O)(=O)NNc2ccc(Br)cc2)cc1 |
| 4050 nM |  | CC(=O)Nc1ccc(S(=O)(=O)NN(C)c2ccc(Br)cc2)cc1 |
